# According to ChEMBL document CHEMBL6071134, “Novel bibenzyl compound Ae exhibits anti-agiogenic activity in HUVECs in vitro and zebrafish in vivo” (Bioorg Med Chem, 2024):
# Calls of active or inactive are those of the source. The calls are words filed in the database; no cut-off is given here.
# Legend:
# HUVEC [1] = experiment: Inhibition of cell migration in HUVEC cells at 2 uM by crystal violet staining based Boyden chamber assay relative to control; type: functional; conditions: Homo sapiens
# HUVEC [2] = experiment: Anti-angiogenesis activity in HUVEC cells assessed as appearance of incomplete tubule network structure at 0.25 to 2 uM incubated for 12 hrs by inverted microscopic analysis; type: functional, cell-based; conditions: Homo sapiens, dose 0.25-2 µM
# Danio rerio [3] = species: Danio rerio; experiment: Anti-angiogenesis activity in zebrafish embryo assessed as effect on fgf2 mRNA expression at 0.5 to 5 uM measured after 24 hrs by qRT-PCR analysis; type: functional, organism-based; conditions: dose 0.5-5 µM
# Danio rerio [4] = species: Danio rerio; experiment: Anti-angiogenesis activity in zebrafish embryo assessed as downregulation of kdr1 mRNA expression at 0.5 to 5 uM measured after 24 hrs by qRT-PCR analysis; type: functional, organism-based; conditions: dose 0.5-5 µM
# HUVEC [5] = experiment: Inhibition of cell migration in HUVEC cells at 0.25 uM by crystal violet staining based Boyden chamber assay; type: functional; conditions: Homo sapiens
# HUVEC [6] = experiment: Anti-angiogenesis activity in HUVEC cells assessed as reduction in total tube length at 1 uM incubated for 12 hrs by inverted microscopic analysis relative to control; type: functional, Homo sapiens; parameters: scale not given: the % may be the effect or the level left
# Danio rerio [7] = species: Danio rerio; experiment: Anti-angiogenesis activity in zebrafish embryo assessed as effect on fgfr2 mRNA expression at 0.5 to 5 uM measured after 24 hrs by qRT-PCR analysis; type: functional, organism-based; conditions: dose 0.5-5 µM
# HUVEC [8] = experiment: Inhibition of cell migration in HUVEC cells assessed as […] in wound closure area at 0.25 to 2 uM incubated for 12 hrs by crystal violet staining based wound healing assay relative to DMSO; type: functional; conditions: Homo sapiens, dose 0.25-2 µM
# Danio rerio [9] = species: Danio rerio; experiment: Anti-angiogenesis activity in zebrafish embryo assessed as effect on flt-1 mRNA expression at 0.5 to 5 uM measured after 24 hrs by qRT-PCR analysis; type: functional, organism-based; conditions: dose 0.5-5 µM
# HUVEC [10] = experiment: Inhibition of cell invasion in HUVEC cells assessed as reduction in number of invading cells at 2 uM measured after 24 hrs by crystal violet staining based inverted fluorescence microscopy analysis relative to control; type: functional; conditions: Homo sapiens
# HUVEC [11] = experiment: Inhibition of cell migration in HUVEC cells incubated for 12 hrs by crystal violet staining based wound healing assay; type: functional; conditions: Homo sapiens, dose 0.25-2 µM
# HUVEC [12] = experiment: Anti-angiogenesis activity in HUVEC cells assessed as appearance of few branches in tubule network structure at 0.25 to 2 uM incubated for 12 hrs by inverted microscopic analysis; type: functional, cell-based; conditions: Homo sapiens, dose 0.25-2 µM
# Danio rerio [13] = species: Danio rerio; experiment: Antiangiogenic activity against transgenic zebrafish model assessed as inhibition of inter-segmental blood vessels of embryo measured after 72 hrs post fertilization by fluorescence microscopy based analysis; type: functional, organism-based; conditions: dose 0.625-2.5 µM
# HUVEC [14] = experiment: Anti-angiogenesis activity in HUVEC cells assessed as appearance of broken tubule network structure at 0.25 to 2 uM incubated for 12 hrs by inverted microscopic analysis; type: functional, cell-based; conditions: Homo sapiens, dose 0.25-2 µM
# [15] = Toxicity in transgenic zebrafish at 2.5 uM measured after 72 hrs; parameters: species or system Danio rerio; conditions: in vivo
# [16] = (§1) Antiproliferative activity against HUVEC cells measured after 48 hrs by CCK-8 method; type: toxicity, cell-based; conditions: human, HUVEC cells
# HUVEC [17] = experiment: as §1; type: toxicity, cell-based; conditions: human, huvec, 48 h; dose 0.062-16 µM
# Danio rerio [18] = species: Danio rerio; experiment: Anti-angiogenesis activity in zebrafish embryo assessed as effect on […]-mRNA expression at 0.5 to 5 uM measured after 24 hrs by qRT-PCR analysis; type: functional, organism-based; conditions: dose 0.5-5 µM
# HUVEC [19] = experiment: Inhibition of cell migration in HUVEC cells at 0.5 uM by crystal violet staining based Boyden chamber assay relative to control; type: functional; conditions: Homo sapiens
# HUVEC [20] = experiment: Inhibition of cell migration in HUVEC cells at 0.25 uM by crystal violet staining based Boyden chamber assay relative to control; type: functional; conditions: Homo sapiens
# HUVEC [21] = experiment: Inhibition of cell migration in HUVEC cells at 1 uM by crystal violet staining based Boyden chamber assay relative to control; type: functional; conditions: Homo sapiens
# HUVEC [22] = experiment: Inhibition of cell invasion in HUVEC cells measured after 24 hrs by crystal violet staining based inverted fluorescence microscopy analysis; type: functional; conditions: Homo sapiens, dose 0.25-2 µM
# Danio rerio [23] = species: Danio rerio; experiment: Anti-angiogenesis activity in zebrafish embryo assessed as downregulation of ang-2 mRNA expression at 0.5 to 5 uM measured after 24 hrs by qRT-PCR analysis; type: functional, organism-based; conditions: dose 0.5-5 µM
# HUVEC [24] = experiment: Anti-angiogenesis activity in HUVEC cells assessed as appearance of shorter tubule length at 0.25 to 2 uM incubated for 12 hrs by inverted microscopic analysis; type: functional, cell-based; conditions: Homo sapiens, dose 0.25-2 µM
# HUVEC [25] = experiment: Anti-angiogenesis activity in HUVEC cells assessed as reduction in total tube length at 2 uM incubated for 12 hrs by inverted microscopic analysis relative to control; type: functional, Homo sapiens; parameters: scale not given: the % may be the effect or the level left
# Danio rerio [26] = species: Danio rerio; experiment: Anti-angiogenesis activity in zebrafish embryo assessed as downregulation of tek mRNA expression at 0.5 to 5 uM measured after 24 hrs by qRT-PCR analysis; type: functional, organism-based; conditions: dose 0.5-5 µM
# Danio rerio [27] = species: Danio rerio; experiment: Antiangiogenic activity against transgenic zebrafish model assessed as inhibition of inter-segmental blood vessels of embryo at 0.625 uM measured after 72 hrs post fertilization by fluorescence microscopy based analysis; type: functional, organism-based
# Danio rerio [28] = species: Danio rerio; experiment: Anti-angiogenesis activity in zebrafish embryo assessed as downregulation of kdr mRNA expression at 0.5 to 5 uM measured after 24 hrs by qRT-PCR analysis; type: functional, organism-based; conditions: dose 0.5-5 µM
# Danio rerio [29] = species: Danio rerio; experiment: Antiangiogenic activity against transgenic zebrafish model assessed as inhibition of inter-segmental blood vessels of embryo at 2.5 uM measured after 72 hrs post fertilization by fluorescence microscopy based analysis relative to control; type: functional; parameters: scale not given: the % may be the effect or the level left
smiles,measurement,setting,value
COc1cc(CCc2ccccc2Cl)cc(OC)c1O,inhibition at 2 µM,HUVEC [1],~78.5%
same,Activity,HUVEC [2],Active
same,Activity,Danio rerio [3],inactive
same,Activity,Danio rerio [4],Active
same,inhibition,HUVEC [5],Active
same,Activity,HUVEC [6],38.7%
same,Activity,Danio rerio [7],inactive
same,inhibition,HUVEC [8],Active
same,Activity,Danio rerio [9],inactive
same,inhibition at 2 µM,HUVEC [10],17.4%
same,inhibition,HUVEC [11],Dose-Dependent Effect
same,Activity,HUVEC [12],Active
same,Activity,Danio rerio [13],Dose-Dependent Effect
same,Activity,HUVEC [14],Active
same,Activity,[15],Toxic
same,IC50 at 48 h,[16],1700 nM
same,Activity,HUVEC [17],Dose-Dependent Effect
same,Activity,Danio rerio [18],inactive
same,inhibition at 0.5 µM,HUVEC [19],~64.4%
same,inhibition at 0.25 µM,HUVEC [20],~37.2%
same,inhibition at 1 µM,HUVEC [21],~71.3%
same,inhibition,HUVEC [22],Dose-Dependent Effect
same,Activity,Danio rerio [23],Active
same,Activity,HUVEC [24],Active
same,Activity,HUVEC [25],22.6%
same,Activity,Danio rerio [26],Active
same,Activity,Danio rerio [27],Active
same,Activity,Danio rerio [28],Active
same,Activity,Danio rerio [29],100%
